Assay results taken from patent US20260022142A1, “MACROCYCLIC IMMUNOMODULATORS” (Bristol-Myers Squibb Company, priority 2022, published 2026).
Bridge positions count the residues as written; N and C are the ends. Square brackets hold non-standard residues; d marks the D form. Peptide text beside a SMILES is read from it. * marks the point of attachment. ξ: configuration not given here. Phe(3-CF3) = N[C@@H](Cc1cccc(C(F)(F)F)c1)C(=O)O; Phe(4-CF3) = N[C@@H](Cc1ccc(C(F)(F)F)cc1)C(=O)O; Ala(morpholin-4-yl) = N[C@@H](CN1CCOCC1)C(=O)O; Phe(4-COOH) = N[C@@H](Cc1ccc(C(=O)O)cc1)C(=O)O; Bip = N[C@@H](Cc1ccc(-c2ccccc2)cc1)C(=O)O; NH(CH2)14COOH = O=C(O)CCCCCCCCCCCCCCN*; Phe(3-Me) = Cc1cccc(C[C@H](N)C(=O)O)c1; NH(CH2)12COOH = O=C(O)CCCCCCCCCCCCN*; Val(3-OH) = CC(C)(O)[C@H](N)C(=O)O; hArg = N=C(N)NCCCC[C@H](N)C(=O)O; Cha = N[C@@H](CC1CCCCC1)C(=O)O; Cit = NC(=O)NCCC[C@H](N)C(=O)O; Thr(3ξ) = CC(O)[C@H](N)C(=O)O; PEG4 = NCCOCCOCCOCCOCCC(=O)O; Carboxymethyl = O=C(O)C*; Nle = CCCC[C@H](N)C(=O)O; Orn = NCCC[C@H](N)C(=O)O; Aun = NCCCCCCCCCCC(=O)O; Dab = NCC[C@H](N)C(=O)O; Dap = NC[C@H](N)C(=O)O; AEEA = NCCOCCOCC(=O)O

What follows are compounds tested against T1, PD-1/PD-L1 interaction (PE-labeled human PD-L1-Ig binding to Jurkat cell line over-expressing human PD-1) (Homo sapiens, UniProt Q15116) (assay: Jurkat-PD-1 Cell Binding High-Content Screening Assay (CBA)). Details: Jurkat cell line over-expressing human PD-1; PE-labeled PD-L1-Ig 20 nM final; read-out: Jurkat hPD1-PDL1 IC50.
T1 construct: expressed in transfected cells; host or cells: Jurkat
Assay type: cell-based
Method in brief: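 Read-out is high-content imaging of cell-bound phycoerythrin-tagged PD-L1-Ig on fixed, Hoechst-counterstained Jurkat cells that over-express human PD-1. Compound exposure lasts 2 h at 37° C before the labeled ligand (20 nM final) is added for a further hour.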

T1 sequence (Q15116 25-288): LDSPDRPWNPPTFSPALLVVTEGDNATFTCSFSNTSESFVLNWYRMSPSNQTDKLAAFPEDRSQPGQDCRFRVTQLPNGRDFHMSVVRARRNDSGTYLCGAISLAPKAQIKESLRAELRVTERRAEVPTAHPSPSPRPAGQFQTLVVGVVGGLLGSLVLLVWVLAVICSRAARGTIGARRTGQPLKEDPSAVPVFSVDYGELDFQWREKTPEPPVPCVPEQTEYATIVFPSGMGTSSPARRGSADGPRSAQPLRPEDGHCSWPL

| Compound | IC50 |
| --- | --- |
| Cc1cccc(C[C@@H]2NC(=O)[C@H](CC(=O)O)NC(=O)[C@H](Cc3ccc(OCC(=O)O)cc3)NC(=O)[C@H](C(C)O)NC(=O)CSC[C@@H](C(=O)N[C@@H](CCN)C(=O)NCCCCCCCCCCCCC(=O)O)NC(=O)[C@H](CO)NC(=O)[C@H](C(C)(C)O)NC(=O)[C@H](CC3CCCCC3)NC(=O)[C@H](CCN)NC(=O)[C@@H](CC(C)C)NC(=O)[C@H](CCCN)NC(=O)[C@H](Cc3ccc(OCC(=O)O)cc3)NC(=O)[C@H](Cc3ccc(-c4ccccc4)cc3)NC(=O)[C@H](Cc3ccc(C(F)(F)F)cc3)NC2=O)c1 (stereo partly drawn) [Compound 3810] ({CH2CO}-[Thr(3ξ)]Y(Carboxymethyl)D[Phe(3-Me)][Phe(4-CF3)][Bip]Y(Carboxymethyl)[Orn][dL][Dab][Cha][Val(3-OH)]SC[Dab]-{NH(CH2)12COOH}; thioether N-14) | 19.8 nM |
| CC(C)C[C@H]1NC(=O)[C@H](CCCN)NC(=O)[C@H](C(C)C)NC(=O)[C@H](Cc2ccc(-c3ccccc3)cc2)NC(=O)[C@H](C(C)C)NC(=O)[C@H](Cc2c[nH]c3ccccc23)NC(=O)[C@H](CC(=O)O)NC(=O)[C@H](Cc2ccc(OCC(=O)O)cc2)NC(=O)[C@H](CN)NC(=O)CSC[C@@H](C(=O)N[C@@H](CCC(=O)O)C(=O)NCCCCCCCCCCC(=O)O)NC(=O)[C@H]([C@@H](C)O)NC(=O)[C@H](C(C)C)NC(=O)[C@H](CC2CCCCC2)NC(=O)[C@H](Cc2c[nH]cn2)NC1=O [Compound 1079] ({CH2CO}-[Dap]Y(Carboxymethyl)DWV[Bip]V[Orn][dL]H[Cha]VTCE[Aun]-OH; thioether N-14) | 55.6 nM |
| CC(C)C[C@H]1NC(=O)[C@H](CCCN)NC(=O)[C@H](Cc2ccc(C(=O)O)cc2)NC(=O)[C@H](Cc2ccc(-c3ccccc3)cc2)NC(=O)[C@H](Cc2ccc(C(=O)O)cc2)NC(=O)[C@H](Cc2cccc(C(F)(F)F)c2)NC(=O)[C@H](CC(=O)O)NC(=O)[C@H](Cc2ccc(OCC(=O)O)cc2)NC(=O)[C@H](Cc2ccc(OCC(=O)O)cc2)NC(=O)CSC[C@@H](C(=O)N[C@@H](CCN)C(=O)NCCCCCCCCCCCCCCC(=O)O)NC(=O)[C@H](CC(=O)O)NC(=O)[C@H](C(C)C)NC(=O)[C@H](CC2CCCCC2)NC(=O)[C@H](CCN)NC1=O [Compound 3848] ({CH2CO}-Y(Carboxymethyl)Y(Carboxymethyl)D[Phe(3-CF3)][Phe(4-COOH)][Bip][Phe(4-COOH)][Orn][dL][Dab][Cha]VDC[Dab]-{NH(CH2)14COOH}; thioether N-14) | 317 nM |
| Cc1cccc(C[C@@H]2NC(=O)[C@H](CC(=O)O)NC(=O)[C@H](Cc3ccc(O)cc3)NC(=O)[C@H]([C@@H](C)O)NC(=O)CSC[C@@H](C(=O)N[C@@H](CCN)C(=O)NCCOCCOCC(=O)NCCCCCCCCCCCCC(=O)O)NC(=O)[C@H](CO)NC(=O)[C@H](C(C)(C)O)NC(=O)[C@H](CC3CCCCC3)NC(=O)[C@H](CCN)NC(=O)[C@@H](CC(C)C)NC(=O)[C@H](CCCN)NC(=O)[C@H](Cc3ccc(OCC(=O)O)cc3)NC(=O)[C@H](Cc3ccc(-c4ccccc4)cc3)NC(=O)[C@H](Cc3ccc(OCC(=O)O)cc3)NC2=O)c1 [Compound 2250] ({CH2CO}-TYD[Phe(3-Me)]Y(Carboxymethyl)[Bip]Y(Carboxymethyl)[Orn][dL][Dab][Cha][Val(3-OH)]SC[Dab][AEEA]-{NH(CH2)12COOH}; thioether N-14) | 18 nM |
| Cc1cccc(C[C@@H]2NC(=O)[C@H](CC(=O)O)NC(=O)[C@H](Cc3ccc(OCC(=O)O)cc3)NC(=O)[C@H](CN)NC(=O)CSC[C@@H](C(=O)N[C@@H](CCCN)C(=O)NCCCCCCCCCCC(=O)O)NC(=O)[C@H](CCC(=O)O)NC(=O)[C@H](C(C)C)NC(=O)[C@H](CC3CCCCC3)NC(=O)[C@H](CCN)NC(=O)[C@@H](CC(C)C)NC(=O)[C@H](CCN)NC(=O)[C@H](Cc3ccc(OCC(=O)O)cc3)NC(=O)[C@H](Cc3ccc(-c4ccccc4)cc3)NC(=O)[C@H](Cc3ccc(OCC(=O)O)cc3)NC2=O)c1 [Compound 2856] ({CH2CO}-[Dap]Y(Carboxymethyl)D[Phe(3-Me)]Y(Carboxymethyl)[Bip]Y(Carboxymethyl)[Dab][dL][Dab][Cha]VEC[Orn][Aun]-OH; thioether N-14) | 19.7 nM |
| Cc1cccc(C[C@@H]2NC(=O)[C@H](CC(=O)O)NC(=O)[C@H](Cc3ccc(OCC(=O)O)cc3)NC(=O)[C@H](Cc3ccc(OCC(=O)O)cc3)NC(=O)CSC[C@@H](C(=O)NCC(=O)N[C@@H](CCC(=O)O)C(=O)NCC(=O)NCCCCCCCCCCC(=O)O)NC(=O)[C@H](CO)NC(=O)[C@H](C(C)C)NC(=O)[C@H](CC(C)C)NC(=O)[C@H](CCN)NC(=O)[C@@H](CC(C)C)NC(=O)[C@H](CCCN)NC(=O)[C@H](C(C)C)NC(=O)[C@H](Cc3ccc(-c4ccccc4)cc3)NC(=O)[C@H](CC(C)C)NC2=O)c1 [Compound 1138] ({CH2CO}-Y(Carboxymethyl)Y(Carboxymethyl)D[Phe(3-Me)]L[Bip]V[Orn][dL][Dab]LVSCGEG[Aun]-OH; thioether N-14) | 18.9 nM |
| CC(C)C[C@H]1NC(=O)[C@H](CCCN)NC(=O)[C@H](Cc2ccc(C(=O)O)cc2)NC(=O)[C@H](Cc2ccc(-c3ccccc3)cc2)NC(=O)[C@H](Cc2ccc(C(=O)O)cc2)NC(=O)[C@H](Cc2cccc(C(F)(F)F)c2)NC(=O)[C@H](CC(=O)O)NC(=O)[C@H](Cc2ccc(OCC(=O)O)cc2)NC(=O)[C@H](CN2CCOCC2)NC(=O)CSC[C@@H](C(=O)N[C@@H](CCN)C(=O)NCCOCCOCCOCCOCCC(=O)NCCCCCCCCCCCCC(=O)O)NC(=O)[C@H](CO)NC(=O)[C@H](C(C)(C)O)NC(=O)[C@H](CC2CCCCC2)NC(=O)[C@H](CCN)NC1=O [Compound 2916] ({CH2CO}-[Ala(morpholin-4-yl)]Y(Carboxymethyl)D[Phe(3-CF3)][Phe(4-COOH)][Bip][Phe(4-COOH)][Orn][dL][Dab][Cha][Val(3-OH)]SC[Dab][PEG4]-{NH(CH2)12COOH}; thioether N-14) | 25.3 nM |
| CCCC[C@@H]1NC(=O)[C@H](CCN)NC(=O)[C@@H](CC(C)C)NC(=O)[C@H](CCCN)NC(=O)[C@H](Cc2ccc(OCC(=O)O)cc2)NC(=O)[C@H](Cc2ccc(-c3ccccc3)cc2)NC(=O)[C@H](Cc2ccc(OCC(=O)O)cc2)NC(=O)[C@H](Cc2cccc(C)c2)NC(=O)[C@H](CC(=O)O)NC(=O)[C@H](Cc2ccc(OCC(=O)O)cc2)NC(=O)[C@H](CN)NC(=O)CSC[C@@H](C(=O)N[C@@H](CCN)C(=O)NCCOCCOCC(=O)NCCCCCCCCCCC(=O)O)NC(=O)[C@H](CCC(=O)O)NC(=O)[C@H](C(C)C)NC1=O [Compound 1258] ({CH2CO}-[Dap]Y(Carboxymethyl)D[Phe(3-Me)]Y(Carboxymethyl)[Bip]Y(Carboxymethyl)[Orn][dL][Dab][Nle]VEC[Dab][AEEA][Aun]-OH; thioether N-14) | 44.6 nM |

Stronger by IC50, values ahead:

| IC50 | Compound |
| --- | --- |
| 16.1 nM | Cc1cccc(C[C@@H]2NC(=O)[C@H](CC(=O)O)NC(=O)[C@H](Cc3ccc(OCC(=O)O)cc3)NC(=O)[C@H](Cc3ccc(OCC(=O)O)cc3)NC(=O)CSC[C@@H](C(=O)N[C@@H](CCN)C(=O)NCCOCCOCC(=O)NCCCCCCCCCCCCC(=O)O)NC(=O)[C@H](CO)NC(=O)[C@H](C(C)(C)O)NC(=O)[C@H](CC3CCCCC3)NC(=O)[C@H](CCN)NC(=O)[C@@H](CC(C)C)NC(=O)[C@H](CCCN)NC(=O)[C@H](Cc3ccc(C(=O)O)cc3)NC(=O)[C@H](Cc3ccc(-c4ccccc4)cc3)NC(=O)[C@H](Cc3ccc(C(=O)O)cc3)NC2=O)c1 [Compound 3842] ({CH2CO}-Y(Carboxymethyl)Y(Carboxymethyl)D[Phe(3-Me)][Phe(4-COOH)][Bip][Phe(4-COOH)][Orn][dL][Dab][Cha][Val(3-OH)]SC[Dab][AEEA]-{NH(CH2)12COOH}; thioether N-14) |
| 15 nM | Cc1cccc(C[C@@H]2NC(=O)[C@H](CC(=O)O)NC(=O)[C@H](Cc3ccc(OCC(=O)O)cc3)NC(=O)[C@H](CN)NC(=O)CSC[C@@H](C(=O)N[C@@H](C)C(=O)N[C@@H](CC(=O)O)C(=O)NCCCCCCCCCCC(=O)O)NC(=O)[C@H]([C@@H](C)O)NC(=O)[C@H](C(C)C)NC(=O)[C@H](CC3CCCCC3)NC(=O)[C@H](CCN)NC(=O)[C@@H](CC(C)C)NC(=O)[C@H](CCCN)NC(=O)[C@H](CCC(=O)O)NC(=O)[C@H](Cc3ccc(-c4ccccc4)cc3)NC(=O)[C@H](C(C)C)NC2=O)c1 [Compound 1049] ({CH2CO}-[Dap]Y(Carboxymethyl)D[Phe(3-Me)]V[Bip]E[Orn][dL][Dab][Cha]VTCAD[Aun]-OH; thioether N-14) |
| 10.5 nM | Cc1cccc(C[C@@H]2NC(=O)[C@H](CC(=O)O)NC(=O)[C@H](Cc3ccc(OCC(=O)O)cc3)NC(=O)[C@H](CN)NC(=O)CSC[C@@H](C(=O)N[C@@H](C)C(=O)N[C@@H](CC(=O)O)C(=O)NCCOCCOCC(=O)NCCCCCCCCCCC(=O)O)NC(=O)[C@H]([C@@H](C)O)NC(=O)[C@H](C(C)C)NC(=O)[C@H](CC3CCCCC3)NC(=O)[C@H](CCN)NC(=O)[C@@H](CC(C)C)NC(=O)[C@H](CCCN)NC(=O)[C@H](CCCNC(N)=O)NC(=O)[C@H](Cc3ccc(-c4ccccc4)cc3)NC(=O)[C@H](C(C)C)NC2=O)c1 [Compound 1008] ({CH2CO}-[Dap]Y(Carboxymethyl)D[Phe(3-Me)]V[Bip][Cit][Orn][dL][Dab][Cha]VTCAD[AEEA][Aun]-OH; thioether N-14) |
| 5.7 nM | Cc1cccc(C[C@@H]2NC(=O)[C@H](CC(=O)O)NC(=O)[C@H](Cc3ccc(OCC(=O)O)cc3)NC(=O)[C@H](CCCCNC(=N)N)NC(=O)CSC[C@@H](C(=O)NCCOCCOCC(=O)N[C@@H](CCN)C(=O)NCCCCCCCCCCC(=O)O)NC(=O)[C@H](CCCN)NC(=O)[C@H](C(C)C)NC(=O)[C@H](CC3CCCCC3)NC(=O)[C@H](CCN)NC(=O)[C@@H](CC(C)C)NC(=O)[C@H](CCN)NC(=O)[C@H](C(C)C)NC(=O)[C@H](Cc3ccc(-c4ccccc4)cc3)NC(=O)[C@H](C(C)C)NC2=O)c1 [Compound 3251] ({CH2CO}-[hArg]Y(Carboxymethyl)D[Phe(3-Me)]V[Bip]V[Dab][dL][Dab][Cha]V[Orn]C[AEEA][Dab][Aun]-OH; thioether N-14) |
